According to PubChem BioAssay AID2060504 (Molecular Pharmacology Branch, DTP, NCI, 2025):
“And” between values parts separate entries of the source, which are not always exact repeats. Equal values may be shown once.

Test system: 636577-100-R-J1-PDC complex spheroid viability
Assay: Anticancer human tumor 636577-100-R-J1-PDC patient-derived endometrial adenocarcinoma cell line growth inhibition [GQUAD]
Settings: for viability, T/C: stronger effect = lower value
Source text: DNA G-quadruplex Stabilizer Agents in Combinations in Complex Spheroids
A high-throughput screen of multi-cell type tumor spheroids was designed to identify active combinations of DNA G-quadruplex stabilizer agents and targeted small molecules. Complex spheroids include a stromal component modeled by human endothelial cells (HUVEC) and fibroblasts modeled by human mesenchymal stem cells (MSCs). The concentration ranges selected for each drug and investigational agent were based upon clinically achievable concentrations if the clinical Cmax of the agent was known.
Compounds. The drugs and investigational agents: pidnarulex (CX-5461; NSC782164), APTO-253 (NSC789042), BRACO-19 (NSC847499), peposertib (NSC802822), ceralasertib (NSC780249), elimusertib (NSC800525), camonsertib (NSC841442), AZD-1390 (NSC803789), olaparib (NSC753686), talazoparib (NSC767125), ART-558 (NSC835418), sotorasib (NSC818433), MRTX-1133 (NSC836407), SN-38 (NSC673596), topotecan (NSC609699), etoposide (NSC141540), doxorubicin (NSC123127), gemcitabine (NSC613327), 5-fluorouracil (NSC19893), paclitaxel (NSC125973), vemurafenib (NSC761431), panobinostat (NSC761190), R-306465 (JNJ-16241199; NSC773264), adavosertib (NSC754352), TP-3654 (NSC805149), carboplatin (NSC241240), KSQ-4279 (NSC840948), and staurosporine (NSC755774) were obtained from the National Cancer Institute (NCI) Developmental Therapeutics Program Chemical Repository (34). The FDA-approved anticancer drug set is available from the NCI Developmental Therapeutics Program. […] The stock solutions were prepared in dimethyl sulfoxide (DMSO, Sigma-Aldrich, St. Louis, MO, cat. D2650) at 800-fold the tested concentration and stored at -70 degrees C prior to their use. All drugs and investigational agents were tested over a range starting from a high concentration at or near the clinical Cmax and decreasing in half-log increments. If the clinical Cmax for an agent had not been determined, the highest concentration tested was 10 microM.
2.3 Cell Culture. All cells were maintained in an incubator at 37 degrees C and 5% CO2 with 95% humidity. The PDC lines were cultured according to standard operating procedures established by the NCI PDMR. All PDCs were thawed and cultured in Matrigel-coated flasks prepared with a working solution of 1X Ham's F-12 nutrient mix, without supplementation (Invitrogen, cat. 11765054), 100 U/mL penicillin-streptomycin (Invitrogen, cat. 15140122), and 2.5% Matrigel (Corning Inc., cat. 354248) for the first three passages. The 857933-349-R-J2-PDC line was cultured in 6C/Colon 1B media, which includes advanced DMEM/F-12 (Thermo Fisher Scientific, cat. 12634028), 10 mM HEPES (Thermo Fisher Scientific, cat. 15630080), 1X GlutaMAX supplement (Thermo Fisher Scientific, cat. 35050061), 0.1 mg/mL primocin (InvivoGen, cat. ant-pm-2), 10% defined fetal bovine serum, heat inactivated (HyClone Laboratories Inc., cat. SH30070.03HI), 50% L-WRN conditioned media (ATCC, cat. CRL-3276), 1.25 mM N-Acetyl-L-cysteine (Sigma-Aldrich, cat. A9165), 10 mM nicotinamide (Sigma-Aldrich, cat. N0636), 1X B-27 supplement (Thermo Fisher Scientific, cat. 17504044), 1X N-2 supplement (Thermo Fisher Scientific, cat. 17502048), 10 microM Y-27632 dihydrochloride (Tocris Bioscience, cat. 1254), and 50 ng/mL human EGF recombinant protein (Thermo Fisher Scientific, cat. PHG0311). The 485176-168-R4-J1-PDC line was cultured in Panc media, which includes all 6C/Colon 1B media components plus 100 ng/mL human FGF-10 (Thermo Fisher Scientific, cat. 100-26), 500 nM SB-431542 (Selleckchem, cat. S1067), and gastrin (Tocris, cat. 3006).
[…]
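Note: viability read after seven days of drug exposure.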
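Throughout, for viability, T/C: luminescence signal used as a proxy for viable cells; 100% = DMSO vehicle control wells.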

COc1ncnc(C2CC2)c1-c1ncc2cnn(Cc3ccc(-c4nc(C(F)(F)F)cn4C(C)C)cc3)c2n1
viability, T/C (compound 0.0316 µM): 72.1% and 66.5% and 79.3%
viability, T/C (compound 0.1 µM): 70% and 60.2% and 82.1%
viability, T/C (compound 0.316 µM): 54.8% and 66.5% and 102%
viability, T/C (compound 1 µM): 72.7% and 57.8% and 88.1%
viability, T/C (compound 3.16 µM): 64.7% and 64.6% and 68%
viability, T/C (compound 10 µM): 59.5% and 68.5% and 65.4%
IC50 (curve of compound): > 10000 nM

Cc1[nH]c2ccccc2c1CCNCc1ccc(/C=C/C(=O)NO)cc1
viability, T/C (compound 0.000999 µM): 80% and 86.3% and 79%
viability, T/C (compound 0.00316 µM): 57.6% and 53.8% and 75.6%
viability, T/C (compound 0.00999 µM): 34.1% and 38.9% and 51.3%
viability, T/C (compound 0.0316 µM): 15.3% and 17.2% and 16.4%
viability, T/C (compound 0.0999 µM): 6.66% and 8% and 7.02%
viability, T/C (compound 0.316 µM): 9.32% and 8.7% and 9.38%
IC50 (curve of compound): 4.63 nM and 4.41 nM and 10.4 nM

Nc1ccn(C2OC(CO)C(O)C2(F)F)c(=O)n1 (stereo not given) + Cc1cnc(CNC(=O)c2c(=O)c3ccc(N4CCCN(C)CC4)nc3n3c2sc2ccccc23)cn1
IC50 (curve of first compound, second compound 0.0316 µM): < 31.6 nM
IC50 (curve of first compound, second compound 0.1 µM): < 31.6 nM
IC50 (curve of first compound, second compound 0.316 µM): < 31.6 nM
IC50 (curve of first compound, second compound 1 µM): < 31.6 nM
IC50 (curve of first compound, second compound 3.16 µM): < 31.6 nM
IC50 (curve of first compound, second compound 10 µM): < 31.6 nM
viability, T/C (second compound 0.0316 µM, first compound 0.0316 µM): 15.9%
viability, T/C (second compound 0.0316 µM, first compound 0.1 µM): 13.3%
viability, T/C (second compound 0.0316 µM, first compound 0.316 µM): 15%
viability, T/C (second compound 0.0316 µM, first compound 1 µM): 12.4%
viability, T/C (second compound 0.0316 µM, first compound 3.16 µM): 13.6%
viability, T/C (second compound 0.0316 µM, first compound 10 µM): 12.1%
viability, T/C (second compound 0.1 µM, first compound 0.0316 µM): 17.9%
viability, T/C (second compound 0.1 µM, first compound 0.1 µM): 13.8%
viability, T/C (second compound 0.1 µM, first compound 0.316 µM): 16.3%
viability, T/C (second compound 0.1 µM, first compound 1 µM): 13.3%
viability, T/C (second compound 0.1 µM, first compound 3.16 µM): 16.2%
viability, T/C (second compound 0.1 µM, first compound 10 µM): 14.6%
viability, T/C (second compound 0.316 µM, first compound 0.0316 µM): 17.6%
viability, T/C (second compound 0.316 µM, first compound 0.1 µM): 15.1%
viability, T/C (second compound 0.316 µM, first compound 0.316 µM): 16.5%
viability, T/C (second compound 0.316 µM, first compound 1 µM): 15.2%
viability, T/C (second compound 0.316 µM, first compound 3.16 µM): 16.3%
viability, T/C (second compound 0.316 µM, first compound 10 µM): 13.9%
viability, T/C (second compound 1 µM, first compound 0.0316 µM): 14.7%
viability, T/C (second compound 1 µM, first compound 0.1 µM): 14.8%
viability, T/C (second compound 1 µM, first compound 0.316 µM): 16.6%
viability, T/C (second compound 1 µM, first compound 1 µM): 17.5%
viability, T/C (second compound 1 µM, first compound 3.16 µM): 16.6%
viability, T/C (second compound 1 µM, first compound 10 µM): 15.3%
viability, T/C (second compound 3.16 µM, first compound 0.0316 µM): 15.4%
viability, T/C (second compound 3.16 µM, first compound 0.1 µM): 16.5%
viability, T/C (second compound 3.16 µM, first compound 0.316 µM): 17.9%
viability, T/C (second compound 3.16 µM, first compound 1 µM): 17.7%
viability, T/C (second compound 3.16 µM, first compound 3.16 µM): 17.6%
viability, T/C (second compound 3.16 µM, first compound 10 µM): 12.7%
viability, T/C (second compound 10 µM, first compound 0.0316 µM): 18.2%
viability, T/C (second compound 10 µM, first compound 0.1 µM): 13.8%
viability, T/C (second compound 10 µM, first compound 0.316 µM): 18.1%
viability, T/C (second compound 10 µM, first compound 1 µM): 16.4%
viability, T/C (second compound 10 µM, first compound 3.16 µM): 16.3%
viability, T/C (second compound 10 µM, first compound 10 µM): 13.5%

CC1COCCN1c1cc(C2(S(C)(=N)=O)CC2)nc(-c2ccnc3[nH]ccc23)n1 (stereo not given)
viability, T/C (compound 0.0316 µM): 90.3% and 97.2% and 58.2%
viability, T/C (compound 0.1 µM): 91.5% and 90.5% and 90.6%
viability, T/C (compound 0.316 µM): 93% and 90.3% and 73.6%
viability, T/C (compound 1 µM): 50.8% and 49.6% and 41.9%
viability, T/C (compound 3.16 µM): 22.6% and 22.4% and 54.3%
viability, T/C (compound 10 µM): 14.2% and 12.7% and 14.7%
IC50 (curve of compound): 1040 nM and 2200 nM

CC(C)(O)C1CCC(Nc2ccc3ncc(-c4cccc(C(F)(F)F)c4)n3n2)CC1 (stereo not given)
viability, T/C (compound 0.0316 µM): 102% and 104% and 81.5%
viability, T/C (compound 0.1 µM): 86.4% and 84.5% and 92.3%
viability, T/C (compound 0.316 µM): 93.7% and 109% and 93.8%
viability, T/C (compound 1 µM): 67.9% and 78.7% and 42.9%
viability, T/C (compound 3.16 µM): 29.4% and 26.8% and 30.6%
viability, T/C (compound 10 µM): 35.9% and 36.4% and 44.3%
IC50 (curve of compound): 1790 nM and 2020 nM and 839 nM
